Source: article PMC12402003 (Frontiers in Nutrition, 2025)

Key:
Srebp-1c = assay: Western blot of Srebp-1c protein in Caco-2/HepG2 co-culture; format: cell-based, human; conditions: OA-induced co-culture, 50 μM, 24 h; compared vs. OA
Method: (§1) Cells from the co-culture model were lysed and supernatants were collected. The protein concentrations were determined using the BCA Protein Quantitation Kit. Then electrophoresis of samples was conducted using a SDS-PAGE kit (Beyotime Biotechnology) following the manufacturer’s instructions and transferred to poly-vinylidene difluoride (PVDF) membrane. Next, membranes were incubated in 5% nonfat milk to block non-specific antibody binding for 30 min at room temperature and followed by incubating with primary antibodies and secondary antibodies. Chemiluminescence based-images of the blots were acquired using ImageQuant LAS 500 system (GE, United States). Protein bands were quantified using ImageJ (version 1.53a) software. The changes in expression levels of these proteins detected finally are used to evaluate the sample’s effect on lipid metabolism.

HepG2 cells [1] = assay: MTT cell viability assay in HepG2 cells; format: cell-based, human; conditions: 24 h; for effect on cell viability: 50 μM; for cytotoxicity: 100 μM
Method: (§2) Cell culture: […] Subsequently, the supernatant was removed and 200 μL of MTT solution (0.1 mg/mL) was added to each well to incubate for an additional 4 h (200 μL for Caco-2 cells, 100 μL for HepG2 cells, both at a concentration of 0.1 mg/mL). Finally, formazan crystals were completely dissolved in DMSO in a shaker for 10 min and the absorbance was measured at a wavelength of 490 nm using a microplate absorbance reader (FLUOstar Omera, BMG Labtech, Germany). Cell viability was determined using the following equation: Cell viability (%) = (OD sample/OD control) × 100, where OD is the optical density. The absorbance values for drug fractions […], catechin, and […]-catechin) were compared to those of untreated culture (control). Each treatment was set up in triplicate.

HepG2 cells [2] = assay: TG and TC content in OA-induced high-fat HepG2 cells; format: cell-based, human; conditions: OA-induced high-fat HepG2 cells, 50 μM, 24 h
Method: For high fat HepG2 model: […] Afterwards, cells were harvested and lysed. […] For TG and TC assay: […] The medium was removed and the cells were washed twice with PBS. The levels of triglycerides (TG) and total cholesterol (TC) in the cells were determined according to the instructions of test kits.

Caco-2 cells = assay: MTT cell viability assay in Caco-2 cells; format: cell-based, human; conditions: 24 h; for cell viability: 100 μM, compared to control (0 μM); for change in cell vitality: concentrations below 50 μM
Method: as §2

P-gp = P-gp (Homo sapiens, UniProt P08183); assay: Bidirectional Caco-2 transport with verapamil (P-gp inhibitor); conditions: for ER (efflux rate) / Papp (AP → BL) / Papp (BL → AP): 50 μmol/L, + Ver (verapamil 100 μM); for substrate of P-gp: bidirectional assay with verapamil 100 μM
P-gp, sequence (P08183 whole entry): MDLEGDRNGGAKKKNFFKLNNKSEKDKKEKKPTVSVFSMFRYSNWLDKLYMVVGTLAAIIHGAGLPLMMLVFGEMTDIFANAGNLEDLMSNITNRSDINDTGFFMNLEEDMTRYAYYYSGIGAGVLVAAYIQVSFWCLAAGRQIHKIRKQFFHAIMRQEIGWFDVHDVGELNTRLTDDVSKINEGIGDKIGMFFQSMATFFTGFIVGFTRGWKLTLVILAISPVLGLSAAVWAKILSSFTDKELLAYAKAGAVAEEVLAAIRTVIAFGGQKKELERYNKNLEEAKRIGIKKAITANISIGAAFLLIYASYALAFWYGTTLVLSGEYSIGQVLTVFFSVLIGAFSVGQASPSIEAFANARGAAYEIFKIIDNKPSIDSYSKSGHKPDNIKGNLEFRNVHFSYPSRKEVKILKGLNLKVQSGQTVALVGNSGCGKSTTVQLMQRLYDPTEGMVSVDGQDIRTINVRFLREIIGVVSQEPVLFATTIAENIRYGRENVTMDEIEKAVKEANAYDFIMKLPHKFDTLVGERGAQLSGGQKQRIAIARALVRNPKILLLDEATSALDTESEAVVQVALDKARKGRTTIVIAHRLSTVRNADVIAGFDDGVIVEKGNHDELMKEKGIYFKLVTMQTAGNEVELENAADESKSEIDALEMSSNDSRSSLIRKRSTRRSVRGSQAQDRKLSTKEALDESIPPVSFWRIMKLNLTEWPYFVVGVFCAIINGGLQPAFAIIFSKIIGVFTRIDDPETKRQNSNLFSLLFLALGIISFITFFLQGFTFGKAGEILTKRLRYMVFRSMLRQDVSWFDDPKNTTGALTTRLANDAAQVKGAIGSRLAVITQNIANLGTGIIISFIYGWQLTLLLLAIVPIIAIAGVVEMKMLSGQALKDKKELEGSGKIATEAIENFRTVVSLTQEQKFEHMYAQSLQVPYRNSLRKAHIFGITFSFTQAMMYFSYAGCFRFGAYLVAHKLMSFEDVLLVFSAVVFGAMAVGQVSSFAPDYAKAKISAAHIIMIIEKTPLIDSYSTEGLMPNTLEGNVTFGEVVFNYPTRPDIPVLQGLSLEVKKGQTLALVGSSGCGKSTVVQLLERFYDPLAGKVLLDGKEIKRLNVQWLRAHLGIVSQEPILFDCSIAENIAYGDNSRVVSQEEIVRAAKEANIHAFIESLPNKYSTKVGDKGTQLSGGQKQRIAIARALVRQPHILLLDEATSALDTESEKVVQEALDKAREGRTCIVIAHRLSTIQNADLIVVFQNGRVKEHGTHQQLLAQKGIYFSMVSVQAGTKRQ
Method: Transport assay: The monolayers were pre-incubated at 37°C for 30–40 min with 5% CO2 in a pre-warmed media, which contained Hanks Balanced Salt solution (HBSS, BioWhittaker), HEPES buffer and D-glucose. For the transport of apical (AP) side to basolateral (BL) side, the media was removed after pre-incubation and 0.5 mL of polyphenols was added to the AP side. 1.5 mL of HBSS were added to the BL side. Then 200 μL of samples were taken from the BL side at 30, 60, 90, 120 and 150 min, respectively. The BA sample volumes removed were therewith replenished with same volumes of the HBSS solution. For the transport of BL to AP, polyphenols were added to BL and samples were taken from AP at a series of time points as above mentioned. The TEER was measured from the beginning to the end of the assay.
Caco-2 cells (1×10^5 cells/well) were cultured in 96-well plates for 24 h until differentiation, with a TEER value exceeding 400 Ω·cm^2. Bidirectional transport experiments from AP to BL or from BL to AP were performed as mentioned in the transport assay. The apparent permeability coefficients, cumulative release and initial concentrations and efflux rates were determined. In brief, the total transport time was set to 150 min. For AP to BL transport, 0.5 mL of polyphenols were added to AP with 1.5 mL of HBSS to the BL side. 200 μL of samples were collected from BL at different time points (30, 60, 90, 120, and 150 min). For BL to AP transport, polyphenols were added to BL and samples were collected from AP as the mentioned above.

Fasn = assay: Western blot of Fasn protein in Caco-2/HepG2 co-culture; format: cell-based, human; conditions: OA-induced co-culture, 50 μM, 24 h; compared vs. OA
Method: as §1

Structure (SMILES) | effect on cell viability (HepG2 cells [1]) | cytotoxicity (HepG2 cells [1]) | cell viability (Caco-2 cells) | change in cell vitality (Caco-2 cells) | ER (efflux rate) (P-gp; 30 min) | Papp (AP → BL) (P-gp; 30 min) | Papp (BL → AP) (P-gp; 30 min) | ER (efflux rate) (P-gp; 60 min) | Papp (AP → BL) (P-gp; 60 min) | Papp (BL → AP) (P-gp; 60 min) | ER (efflux rate) (P-gp; 90 min) | Papp (AP → BL) (P-gp; 90 min) | Papp (BL → AP) (P-gp; 90 min) | ER (efflux rate) (P-gp; 120 min) | Papp (AP → BL) (P-gp; 120 min) | Papp (BL → AP) (P-gp; 120 min) | ER (efflux rate) (P-gp; 150 min) | Papp (AP → BL) (P-gp; 150 min) | Papp (BL → AP) (P-gp; 150 min) | substrate of P-gp (P-gp) | also measured
OC[C@H]1O[C@@H](Oc2cc3c(O)cc(O)cc3[o+]c2-c2ccc(O)c(O)c2)[C@H](O)[C@@H](O)[C@@H]1O [C3G, Cyanidin-3-O-glucoside] | no significant effects | comparable cytotoxicity | 80% | No significant changes | 0.48 | 11.4 ± 0.49 ×10^−5 cm /s | 5.49 ± 0.66 ×10^−5 cm /s | 0.54 | 5.73 ± 0.21 ×10^−5 cm /s | 3.07 ± 0.2 ×10^−5 cm /s | 0.51 | 4.05 ± 0.12 ×10^−5 cm /s | 2.09 ± 0.03 ×10^−5 cm /s | 0.54 | 3.16 ± 0.17 ×10^−5 cm /s | 1.71 ± 0.15 ×10^−5 cm /s | 0.51 | 2.47 ± 0.14 ×10^−5 cm /s | 1.21 ± 0.28 ×10^−5 cm /s | not substrates | Srebp-1c protein expression level (densitometry) (Srebp-1c): 1.32; reduction of TG content (HepG2 cells [2]): 21%
O.Oc1cc(O)c2c(c1)O[C@H](c1ccc(O)c(O)c1)[C@@H](O)C2 [catechin] | no significant effects | comparable cytotoxicity | 80% | No significant changes | 0.57 | 11.2 ± 0.23 ×10^−5 cm /s | 6.38 ± 0.37 ×10^−5 cm /s | 0.57 | 6.02 ± 0.37 ×10^−5 cm /s | 3.45 ± 0.29 ×10^−5 cm /s | 0.51 | 3.98 ± 0.31 ×10^−5 cm /s | 2.05 ± 0.56 ×10^−5 cm /s | 0.52 | 3.25 ± 0.52 ×10^−5 cm /s | 1.68 ± 0.29 ×10^−5 cm /s | 0.52 | 2.54 ± 0.17 ×10^−5 cm /s | 1.32 ± 0.34 ×10^−5 cm /s | not substrates | Fasn protein expression level (densitometry) (Fasn): 1.11
